Assay results reported in patent US10947263B2, “Cyclic dinucleotides as anticancer agents” (BRISTOL-MYERS SQUIBB COMPANY, priority 2017, dated 2021).
pEC50, pIC50: −log10 of the molar value. Read-outs that look alike come from different tables or passages of the source.

Legend:
[1] = system: STING / IRF pathway in THP1-Dual cells; assay: STING THP1 Reporter Assay, IRF pathway (secreted Lucia luciferase, QUANTI-Luc); assay type: cell-based; conditions: 10% human plasma, 100% activation = 100 μM cGAMP, luciferase readout, read-out: THP1 Reporter Assays EC50 IRF3
From the text: (§1) THP1-Dual™ cells were derived from the human THP-1 monocyte cell line by stable integration of two inducible reporter constructs. To this end, THP1-Dual™ cells allow the simultaneous study of the […], by monitoring the activity of SEAP, and the IRF pathway by assessing the activity of a secreted luciferase (Lucia). Both reporter proteins are readily measurable in the cell culture supernatant when using QUANTI-Blue™, a SEAP detection reagent, and QUANTI-Luc™, a luciferase detection reagent.
(§2) THP1-Dual™ cells induce the activation of NF-κB in response to STING agonists. They also trigger the IRF pathway upon stimulation with STING agonists, such as cGAMP. Here, the THP-1-Dual cells were used to assess STING binders for function on the cellular level.
(§3) Serial dilutions of compounds in DMSO were added to low volume 384 well plates at 100 nl/well using an ECHO acoustic dispenser (Labcyte, model 550) to achieve final starting concentration of 100 μM in cell suspension. THP-1 Dual™ STING reporter cells (Invivogen, Dual cells cat #THPD-nfis) were added to the plates with compounds at 15,000 cells in 10 μL per well in RPMI media (Gibco, cat #11875) containing 10% human plasma in a low volume 384-well black wall clear bottom tissue culture plate (Corning, cat #3542) for SEAP assay and low volume solid white plate (Corning, cat #3826) for luciferase assay. One column of the plate was reserved for treatment with cGAMP at 100 μM for 100% activation calculation and one column for no treatment (DMSO only) for baseline activation. Plates were then incubated in 37 OC incubator at 5% CO2 for 20 hours.
(§4) In the SEAP assay, […] 2× QuantiBlue (Invivogen, cat #Rep-qb2) is added to 384 well black plates seeded with THP1 cells and incubated at 37° C. for 2 hours. Plates were read on the Envision (Perkin Elmer) at 620 nm wavelength (OD620). In the luciferase assay, 5 μl of Quantiluc (Invivogen, Rep-qlc2) is added to white 384 well plates seeded with THP1 cells and read at 5 minutes on the Envision (Perkin Elmer) using a luminescence protocol (RLU). For both cell lines, 100% activation was determined by value (RLU) of THP-1 Dual STING cells stimulated with 100 μM cGAMP (Invivogen, cat #TLRL-NACGA23-5).

[2] = target: T1, STING WT (His-TVMV-S-hSTING(155-341)-H232R) (Homo sapiens, UniProt Q86WV6, H232R); assay: STING HTRF binding assay (time resolved FRET competition), STING WT; conditions: 20 nM His-tagged STING WT cytoplasmic domain, 200 nM fluorescein-labeled cGAMP analog probe, one hour; read-out: HTRF Binding Assays IC50 WT
T1 construct: STING WT: His-TVMV-S-hSTING(155-341)-H232R
Method: (§5) A time resolved FRET-based competition binding assay was used to assess test article binding to STING WT and STING AQ. His-tagged STING cytoplasmic domain (WT or AQ) at a concentration of 20 nM was incubated with 2.5 nM Tb-labeled anti-His antibody, test compound, and fluorescein-labeled cGAMP analog probe (BioLog cat. no. C195) at a concentration of 200 nM (STING WT) or 40 nM (STING AQ) in PBS containing 0.005% Tween-20 and 0.1% BSA for one hour. Fluorescence at 495 nm and 520 nm was measured using an EnVision microplate reader to quantify FRET between Tb-labeled anti-His antibody and fluorescein-labeled probe. Background was defined as the signal obtained in the absence of STING protein, and background subtracted FRET ratios were normalized to the maximum signal obtained in the absence of test compound. These values were converted to a percent inhibition. Percent inhibition was determined for test compounds at 11 concentrations. The IC50, defined as the concentration of competing test compound needed to reduce specific binding of the probe by 50%, was calculated using the 4 parameter logistic equation to fit the data
STING WT: His-TVMV-S-hSTING(155-341)-H232R • […] […] […] […] LRQEEKEEV (SEQ ID NO:1)

[3] = system: STING / NF-κB pathway in THP1-Dual cells; assay: STING THP1 Reporter Assay, NF-κB pathway (SEAP, QUANTI-Blue); assay type: cell-based; conditions: 10% human plasma, 100% activation = 100 μM cGAMP, SEAP readout, read-out: THP1 Reporter Assays EC50 NFkB
From the text: as §1, §2, §3, §4

[4] = target: T2, STING AQ (His-TVMV-S-hSTING(155-341)-G230A-R293Q) (Homo sapiens, UniProt Q86WV6, G230A/H232R/R293Q); assay: STING HTRF binding assay (time resolved FRET competition), STING AQ; conditions: 20 nM His-tagged STING AQ cytoplasmic domain, 40 nM fluorescein-labeled cGAMP analog probe, one hour; read-out: HTRF Binding Assays IC50 AQ
T2 construct: STING AQ: His-TVMV-S-hSTING(155-341)-G230A-R293Q
Method: as §5
STING AQ: His-TVMV-S-hSTING(155-341)-G230A-R293Q • […] […] […] […] LRQEEKEEV (SEQ ID NO:2)

T2 sequence (Q86WV6 with tags, fused parts or gaps G230A/H232R/R293Q): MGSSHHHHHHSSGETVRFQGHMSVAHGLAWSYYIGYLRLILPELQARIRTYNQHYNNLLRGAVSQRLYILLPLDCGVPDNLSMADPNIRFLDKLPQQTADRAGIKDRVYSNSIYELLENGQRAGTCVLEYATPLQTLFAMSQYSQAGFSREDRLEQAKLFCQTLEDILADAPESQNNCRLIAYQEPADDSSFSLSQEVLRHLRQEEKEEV
T1 sequence (Q86WV6 with tags, fused parts or gaps H232R): as the sequence (Q86WV6 with tags, fused parts or gaps G230A/H232R/R293Q) above, with A99G, Q162R counted along it

pEC50 ([1]; 20 hours)	pIC50 [2]	pEC50 ([3]; 20 hours)	pIC50 [4]	pEC50 ([1]; Homo sapiens, THP1-Dual, 20 h)	pEC50 ([3]; Homo sapiens, THP1-Dual, 20 h)	SMILES
5.66	7.05	5.11	8.00			NC(=O)c1cccc2c1nnn2[C@@H]1O[C@@H]2COP(=O)(O)O[C@H]3[C@@H](F)[C@H](n4cnc5c4ncn4ccnc54)O[C@@H]3COP(=O)(S)O[C@@H]1[C@@H]2F (single isomer, unassigned) [Example 16-1]
4.90	6.68	4.13	8.00			NC(=O)c1cccc2c1nnn2[C@@H]1O[C@@H]2COP(=O)(O)O[C@H]3[C@@H](F)[C@H](n4cnc5c4ncn4ccnc54)O[C@@H]3COP(=O)(S)O[C@@H]1[C@@H]2F (single isomer, unassigned) [Example 16-2]
	8.00		8.00	5.64	5.29	C=C1[C@H]2OP(=O)(S)OC[C@H]3O[C@@H](n4cnc5c(N)ncnc54)[C@H](F)[C@@H]3OP(=O)(S)OC[C@H]1O[C@H]2n1nnc2c(C(N)=O)cccc21 (single isomer, unassigned) [Example 22-1]
5.49	7.15	5.00	8.00			C=C1[C@H]2OP(=O)(S)OC[C@H]3O[C@@H](n4cnc5c(N)ncnc54)[C@H](F)[C@@H]3OP(=O)(S)OC[C@H]1O[C@H]2n1nnc2c(C(N)=O)cccc21 (single isomer, unassigned) [Example 22-2]
	8.00		8.52	5.82	5.49	NC(=O)c1cccc2c1nnn2[C@@H]1O[C@@H]2COP(=O)(O)O[C@H]3[C@@H](F)[C@H](n4cnc5c(N)ncnc54)O[C@@H]3COP(=O)(O)O[C@@H]1[C@@H]2O [Example 1, 1-[(1R,6R,8R,9R,10R,15R,17R,18R)-8-(6-amino-9H-purin-9-yl)-9-fluoro-3,12,18-trihydroxy-3,12-dioxo-2,4,7,11,13,16-hexaoxa-3λ^5,12λ^5-diphosphatricyclo[13.2.1.0^6,10]octadecan-17-yl]-1H-1,2,3-benzotriazole-4-carboxamide]
	6.80		8.30	4.28	4.10	Nc1ncnc2c1ncn2[C@@H]1O[C@@H]2COP(=O)(O)O[C@@H]3[C@H](O)[C@@H](COP(=O)(O)O[C@H]2[C@H]1O)O[C@H]3n1nnc2c([N+](=O)[O-])cccc21 [Example 2, (1R,6R,8R,9R,10S,15R,17R, 18R)-8-(6-amino-9H-purin-9-yl)-3,9,12,18-tetrahydroxy-17-(4-nitro-1H-1,2,3-benzo-triazol-1-yl)-2,4,7,11,13,16-hexaoxa-3λ^5,12λ^5-diphospha-tricyclo[13.2.1.0^6,^10]octa-decane-3,12-dione]
	7.52		8.00	5.46	5.17	NC(=O)c1cccc2c1nnn2[C@@H]1O[C@@H]2COP(=O)(O)O[C@H]3[C@@H](F)[C@H](n4cnc5c(N)ncnc54)O[C@@H]3COP(=O)(O)O[C@@H]1[C@@H]2F [Example 3, 1-[(1S,6R,8R,9R,10R,15R, 17R,18R)-8-(6-amino-9H-purin-9-yl)-9,18-difluoro-3,12-dihydroxy-3,12-dioxo-2,4,7,11,13,16-hexaoxa-3λ^5,12λ^5-diphosphatricyclo [13.2.1.0^6,^10]octadecan-17-yl]-1H-1,2,3-benzotriazole-4-carboxamide]
	7.30		8.00	5.48	4.93	O=[N+]([O-])c1cccc2c1nnn2[C@@H]1O[C@@H]2COP(=O)(S)O[C@H]3[C@@H](F)[C@H](n4cnc5c4ncn4ccnc54)O[C@@H]3COP(=O)(S)O[C@@H]1[C@@H]2F (stereo partly drawn) [Example 14-1, (1S,6R,8R,9R,10R,15R,17R,18R)-9,18-difluoro-8-{3H-imidazo[2,1-f]purin-3-yl}-17-(4-nitro-1H-1,2,3-benzotriazol-1-yl)-3,12-disulfanyl-2,4,7,11,13,16-hexaoxa-3λ^5,12λ^5-diphosphatricyclo[13.2.1.0^6,10]octadecane-3,12-dione]
	< 4.00		4.17	< 4.00	< 4.00	Nc1ncnc2c1ncn2[C@@H]1O[C@@H]2COP(=O)(O)O[C@@H]3[C@H](O)[C@@H](COP(=O)(S)O[C@H]2[C@H]1O)O[C@H]3n1nnc2c([N+](=O)[O-])cccc21 (stereo partly drawn) [Example 18-1, (1R,6R,8R,9R,10S,15R,17R,18R)-8-(6-amino-9H-purin-9-yl)-3,9,18-trihydroxy-17-(4-nitro-1H-1,2,3-benzotriazol-1-yl)-12-sulfanyl-2,4,7,11,13,16-hexaoxa-3λ^5,12λ^5-diphosphatricyclo[13.2.1.0^6,10]octadecane-3,12-dione]
	5.33		6.19	< 4.00	< 4.00	Nc1ncnc2c1ncn2[C@@H]1O[C@@H]2COP(=O)(O)O[C@@H]3[C@H](O)[C@@H](COP(=O)(S)O[C@H]2[C@H]1F)O[C@H]3n1nnc2c([N+](=O)[O-])cccc21 (stereo partly drawn) [Example 19-1, (1R,6R,8R,9R,10R,15R,17R, 18R)-8-(6-amino-9H-purin-9-yl)-9-fluoro-3,12,18-trihydroxy-17-(4-nitro-1H-1,2,3-benzotriazol-1-yl)-12-sulfanylidene-2,4,7,11,13, 16-hexaoxa-3λ^5,12λ^5-diphos-phatricyclo[13.2.1.0^6,10]octa-decan-3-one]
